Measurements taken from patent US5332739A, “Pyrimidinedione derivatives and antiarrhythmic agents containing same” (Mitsui Toatsu Chemicals, Incorporated, priority 1990, dated 1994).
Where a name gives a salt, the structure may show the parent alone.

Key:
[1] = Toxicity Test 1 (oral, mortality 24 hours after administration); conditions: mouse, in vivo, 300 mg/kg (P.O), 2 to 4 mice per group, read-out: Mortality Rate (%)
Procedure: Each of the compounds prepared in the above-mentioned examples shown in Table B was administered into a mouse (ddy strain, male). In each case, the administration was effected by oral administration in a dose of 300 mg/kg.
A mortality rate (number of specimens: one group=2 to 4 mice) of the mice 24 hours after the administration was calculated, and the results are set forth in Table B.

[2] = system: Purkinje fiber of the right ventricular free wall; experiment: Influence on Myocardial Action Potential Duration Time (APD75); format: cell-based, hybrid adult dog; conditions: Canis lupus familiaris, 20 min, 20 minutes' incubation, 1 Hz, 37° C.; for percent prolongation of action potential duration (APD75) at 1 µg/mL: Dose 1.0 (μg, ml); for percent prolongation of action potential duration (APD75) at 3 µg/mL: Dose 3.0 (μg, ml); for percent prolongation of action potential duration (APD75) at 10 µg/mL: Dose 10.0 (μg, ml); for percent prolongation of action potential duration (APD75) at 0.3 µg/mL: Dose 0.3 (μg, ml)
Procedure: To a hybrid adult dog, 30 mg/kg of pentobarbital was administered through a vein, and after being anesthetized, the heart was removed. Afterward, the right ventricular free wall of the heart was cut and taken out in a Tyrode solution.
The taken right ventricular free wall was fixed in an incubator at 37° C., and a nutritional solution (20 ml of the Tyrode solution) was refluxed.
In this isolated condition, myocardial action potential duration times (APD75) were measured before and after the administration of the respective compounds prepared in the above examples in Table A and d-sotalol as a control medicine, and APD75 (%) was calculated from the measured results in accordance with the formula: […]
A: APD75 before administration
B: APD75 after administration
Here, APD75 was measured as follows: A field stimulation of 1 Hz was given to the right ventricular free wall, and any variation of an action potential was depicted on an oscilloscope via a glass microelectrode (10 to 20 M.OMEGA.) thrust into a Purkinje fiber of the free wall and via an amplifier. Afterward, a waveform on the oscilloscope was analyzed by the use of a computer, and the time of from a point of the action potential generation to a point of 75% repolarization was measured. This measured time was regarded as the myocardial action potential duration time (APD75).
The compounds and d-sotalol shown in Table A were separately added to the refluxing nutritional solution (20 ml), and after 20 minutes' incubation, APD75 after the administration was calculated from the variation of the myocardial action potential duration time.
Incidentally, this test was carried out in accordance with a Sato et al's method [H. Sato, K. Hashimoto, Arzneimeittel Forschung, 34 (1), 3a, 376-380 (1984)].

[3] = system: ventricular muscle (right ventricle); experiment: Influence on Ventricular Muscle Refractory Period (ERP); format: in vivo, mongrel adult dog; conditions: Canis lupus familiaris, iv, anesthetized dog, read-out: ERP (%; extensibility of refractory period); for change in vivo at 0.1 mg/kg: Dose 0.1 mg/kg i.v.; for change in vivo at 0.3 mg/kg: Dose 0.3 mg/kg i.v.; for change in vivo at 1 mg/kg: Dose 1.0 mg/kg i.v.; for change in vivo at 3 mg/kg: Dose 3.0 mg/kg i.v.
Procedure: Refractory periods were measured in the following manner before and after each of the compounds and d-sotalol shown an Table A was separately administered to a vein or a duodenum, and ERP (%; extensibility of refractory period) was calculated from the measured values in accordance with the following formula: […]
W: Refractory period after administration
Y: Refractory period before administration
To a mongrel adult dog, 30 mg/kg of pentobarbital was administered intravenously, and after being anesthetized, a pair of silver-silver chloride electrodes separated by 3 mm was sewn on an opened right ventricule, and electrical stimulation was given at an interval of 400 msec at a duration time of 4 msec under a current twice as much as the threshold. Afterward, a small amount of alcohol was injected into a sinus artery in order to extinguish a pacemaker activity, and the ventricular refractory period (ERP) was measured under ventricule pacing.
That is, 1 train comprised 10 stimulations, and an interval between two of the trains was usually 400 msec. At the time of the refractory period measurement, however, the above interval was shortened every 10 smec, and the interval between the trains at the time when reaction to the first stimulation of the train disappeared was regarded as the refractory period.
In this case, the electrical stimulation was fed in accordance with a program by a heart stimulation device (Diamedical Co., Ltd.; DHM-226-3).

SMILES	mortality at 24 h [1] [%]	percent prolongation of action potential duration (APD75) at 1 µg/mL [2] [%]	percent prolongation of action potential duration (APD75) at 3 µg/mL [2] [%]	change in vivo at 0.1 mg/kg [3] [%]	change in vivo at 0.3 mg/kg [3] [%]	change in vivo at 1 mg/kg [3] [%]	change in vivo at 3 mg/kg [3] [%]	percent prolongation of action potential duration (APD75) at 10 µg/mL [2] [%]	percent prolongation of action potential duration (APD75) at 0.3 µg/mL [2] [%]
Cn1c(N2CCN(CCCOc3ccc(C(F)(F)F)cc3)CC2)cc(=O)n(C)c1=O [Compound 2]	50								
CC(=O)c1ccc(OCCCN2CCN(c3cc(=O)n(C)c(=O)n3C)CC2)cc1 [Compound 4]	0	5	8						
Cn1c(N2CCN(CCCOc3ccc(-n4cncn4)cc3)CC2)cc(=O)n(C)c1=O [Compound 6]	0	5	10	0	0	0	6.2	25	
Cn1c(N2CCN(CCCOc3ccc(S(C)(=O)=O)cc3)CC2)cc(=O)n(C)c1=O [Compound 7]	0								
COC(=O)c1ccccc1OCCCN1CCN(c2cc(=O)n(C)c(=O)n2C)CC1 [Compound 21]	0	11	23	7.1	7.1	7.1	14.3	26	
CC(=O)c1cc(Cl)ccc1OCCCN1CCN(c2cc(=O)n(C)c(=O)n2C)CC1 [Compound 45]	50	42	71	0	2.4	9.5	18.6	75	
Cn1c(N2CCN(CCCOc3ccc(Cl)cc3)CC2)cc(=O)n(C)c1=O [Compound 64, 6-[4-(3-[4-chlorophenoxy]propyl)piperazin-1-yl]-1,3-dimethyl-2,4(1H,3H)-pyrimidinedione.hydrochloride]	0	14	25	2	6.3	13	24.3		7
Cn1c(N2CCN(CCCOc3ccccc3N)CC2)cc(=O)n(C)c1=O [Compound 69]	0		24	0	6.3	12.5		34	
Cn1c(N2CCN(CCCCOc3ccc(Cl)cc3)CC2)cc(=O)n(C)c1=O [Compound 82, 6-[4-(4-[4-chlorophenoxy]butyl)piperazin-1-yl]-1,3-dimethyl-2,4(1H,3H)-pyrimidinedione.hydrochloride]	0	16	28					43	
CC(=O)c1ccccc1CCN1CCN(c2cc(=O)n(C)c(=O)n2C)CC1 [Compound 85, 1,3-dimethyl-6-[4-(2-[2-acetylphenyl]ethyl)piperazin-1-yl]-2,4(1H,3H)-pyrimidinedione.oxalate]	0								
Cn1c(N2CCN(CCc3ccc(Cl)cc3)CC2)cc(=O)n(C)c1=O [Compound 91, 1,3-dimethyl-6-[4-(2-[4-chlorophenyl]-ethyl)piperazin-1-yl]-2,4(1H,3H)-pyrimidinedione.hydrochloride]		13	25	3.5	6.5	14.5			
CSc1ccc(OCCCN2CCN(c3cc(=O)n(C)c(=O)n3C)CC2)cc1 [Compound 98, 1,3-dimethyl-6-[4-(3-[4-methylthiophenoxy]propyl)piperazin-1-yl]-2,4 (1H,3H)-pyrimidinedione.hydrochloride]		4	13	0	0	7.7	15.4	25	
Cn1c(N2CCN(CCCOc3ccc(NS(C)(=O)=O)cc3Cl)CC2)cc(=O)n(C)c1=O [Compound 111, 1,3-dimethyl-6-[4-(3-[2-chloro-4-methanesulfonamidophenoxy]propyl)piperazin-1-yl]-2,4(1H,3H)-pyrimidinedione.hydrochloride]			19	0	2.4	8.6	15.2	36	
CSc1ccc(OCCCN2CCN(c3cc(=O)n(C)c(=O)n3C)CC2)c(NS(C)(=O)=O)c1 [Compound 113, 1,3-dimethyl-6-[4-(3-[4-methylmercapto-2-methanesulfonamidophenoxy]propyl)piperazin-1-yl]-2,4(1H,3H)-pyrimidinedione.hydrochloride]		2	17	0	0		17.6	26	
CCN(CCCOc1ccc(C(=O)c2ccccc2)cc1)CCNc1cc(=O)n(C)c(=O)n1C [Compound 117, 1,3-dimethyl-6-[2-(N-ethyl-3-[4-benzoylphenoxy]propylamino)ethylamino]-2,4(1H,3H)-pyrimidinedione.oxalate]		17	23	3.2	3.2	6.9	16.1		
CC(C)NC[C@@H](O)c1ccc(NS(C)(=O)=O)cc1 [d-sotalol, reference compound]		3	7.4	1.7	6.7	8.7	15.5	15.8	0
